# pIC50: −log10 of the molar value.
# Target: T1, Androgen Receptor (AR) (Homo sapiens, UniProt P10275, T878A)
# T1 construct: cell based immuno-fluorescence assay using the LNCaP prostate epithelial cell line; host or cells: LNCaP clone FGC prostate carcinoma cells
# T1 sequence (P10275 1-920 T878A): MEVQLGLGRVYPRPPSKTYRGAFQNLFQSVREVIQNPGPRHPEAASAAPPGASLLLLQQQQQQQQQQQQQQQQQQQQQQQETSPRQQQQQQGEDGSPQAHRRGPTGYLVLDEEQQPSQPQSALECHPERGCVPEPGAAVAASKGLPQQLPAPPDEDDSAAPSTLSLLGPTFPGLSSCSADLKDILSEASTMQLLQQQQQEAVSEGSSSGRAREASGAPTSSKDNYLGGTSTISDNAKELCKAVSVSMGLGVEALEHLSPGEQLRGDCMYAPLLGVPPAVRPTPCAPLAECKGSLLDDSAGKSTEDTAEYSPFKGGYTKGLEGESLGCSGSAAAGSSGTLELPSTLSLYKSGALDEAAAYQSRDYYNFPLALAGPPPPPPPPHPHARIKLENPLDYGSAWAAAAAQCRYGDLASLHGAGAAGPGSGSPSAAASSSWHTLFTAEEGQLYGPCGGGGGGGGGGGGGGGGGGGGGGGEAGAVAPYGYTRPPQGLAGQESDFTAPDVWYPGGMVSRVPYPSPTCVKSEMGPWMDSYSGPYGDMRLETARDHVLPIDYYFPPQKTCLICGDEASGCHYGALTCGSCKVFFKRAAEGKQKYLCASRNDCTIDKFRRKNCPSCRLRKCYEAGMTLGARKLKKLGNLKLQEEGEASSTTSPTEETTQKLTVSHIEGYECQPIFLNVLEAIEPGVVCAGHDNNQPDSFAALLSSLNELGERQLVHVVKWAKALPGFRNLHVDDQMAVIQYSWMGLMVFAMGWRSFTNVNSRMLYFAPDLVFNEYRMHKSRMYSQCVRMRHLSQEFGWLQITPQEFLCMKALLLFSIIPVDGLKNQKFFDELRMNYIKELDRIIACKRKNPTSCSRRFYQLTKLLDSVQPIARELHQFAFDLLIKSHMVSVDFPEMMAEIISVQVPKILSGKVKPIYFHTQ
# Experiment: LNCaP Androgen Receptor Down-Regulation Cell Assay
# Type: cell-based
# Settings: LNCaP prostate carcinoma cell line; 20-22 hours incubation; immunofluorescence; 50% reduction of the AR signal
# Experimental: The ability of compounds to reduce Androgen Receptor (AR) numbers was assessed in a cell based immuno-fluorescence assay using the LNCaP prostate epithelial cell line.
# This immunofluorescence end point assay measures the ability of a test compound to down-regulate and reduce measured levels of the AR in the LNCaP prostate carcinoma cell line (LNCaP clone FGC (CRL-1740) obtained from the American Type Culture Collection (ATCC)).
# LNCaP cells were cultured in Growth Medium (phenol red free Roswell Park Memorial Institute (RPMI) 1640 (Invitrogen Code no. 11835-063) containing 2 mM L-Glutamine (Invitrogen Code no. 25030-024) and 1% (v/v) Penicillin/Streptomycin (10000 units/ml Penicillin and 10000 μg/ml of Streptomycin utilising penicillin G (sodium salt) and streptomycin sulphate: prepared in normal saline, Invitrogen Code no. 15140122) and 10% (v/v) foetal bovine serum (FBS)) in a 5% CO2 air incubator at 37° C. Cells for assay were harvested from T175 stock flasks by washing once in PBS (phosphate buffered saline, pH 7.4) (Invitrogen Code no. 14190-094) and harvested using 5 mls of 1× Trypsin/ethylaminediaminetetraacetic acid (EDTA) (10× Trypsin-EDTA, 5.0 g/L Trypsin, 2.0 g/L of EDTA•4Na and 8.5 g/L of NaCl, without Phenol Red, Invitrogen Code no. 15400-054) diluted in PBS solution. A 5 ml volume of Growth Medium was added to each flask (as above except that 5% (v/v) charcoal stripped FBS (HyClone Code no. SH30068.03) was included instead of 10% (v/v) FBS). Cells were syringed at least twice using a sterile 18G×1.5″ (1.2×40 mm) broad gauge needle and cell density was measured using a haemocytometer. Cells were further diluted in Growth Medium plus 5% (v/v) charcoal stripped FBS and seeded at a density of 6.5×10^3 cells per well (in 90 ul) into transparent, black, tissue culture treated 96 well plates (Packard, No. 6005182).
# Test data reported herein was generated using two different compounds preparation and dosing methods. In method (1) a 10 mM compound stock solution in 100% (v/v) DMSO was serially diluted in 4-fold steps in 100% (v/v) DMSO using a Thermo Scientific Matrix SerialMate. The diluted compounds were then further diluted 1 in 30 in assay media using a Thermo Scientific Matrix PlateMate and a 10 μl aliquot of this dilution was dosed to cells manually using a multi-channel pipette. In method (2) starting with a 10 mM compound stock solution, the Labcyte Echo 550 was used to generate a compound concentration response set diluted in 30 μl of assay media. The Echo 550 is a liquid handler that uses acoustic technology to perform direct microplate-to-microplate transfers of DMSO compound solutions. The system can be programmed to transfer volumes as low as […] in multiple increments between microplates and in so doing generates a serial dilution of compound which is then back-filled to normalise the DMSO is concentration across the dilution range. A 10 μl volume of diluted compound is then dosed to cells using a Thermo Scientific Matrix PlateMate.
# Plates were incubated overnight at 37° C., 5% CO2. Wells were then dosed with compound prepared by one of the 2 methods above and further incubated for 20-22 hours at 37° C., 5% CO2. Plates were fixed by the addition of 20 μl of 10% (v/v) formaldehyde solution (in PBS) to each well (final formaldehyde conc.=1.67% (v/v)) and left at room temperature for 10 mins. This fixative solution was removed and cells were washed with 250 μl of PBS/0.05% (v/v) Tween 20 (PBST) using an automated plate washer. This process was then repeated twice more.
# Immunostaining was performed at room temperature. Cells were permeabilised by the addition of 35 μl of PBS containing 0.5% Tween 20 and incubated for 1 hour at room temperature. Permeabilisation solution was removed and cells were washed with 250 μl of PBST using an automated plate washer. This process was then repeated twice more. […]
row,pIC50,SMILES
1,7.25,"CN1CCN(CCOc2ccc(C3CCN(c4ccc5nnc(C(F)(F)F)n5n4)CC3)cc2)CCC1=O [Example 32, 4-methyl-1-[2-(4-{1-[3-(trifluoromethyl)[1,2,4]-triazolo[4,3-b]pyridazin-6-yl]piperidin-4-yl}phenoxy)ethyl]-1,4-diazepan-5-one]"
2,7.10,"CC(=O)N1CCN(CCOc2ccc(C3CCN(c4ccc5nnc(C(F)(F)F)n5n4)CC3)cc2)C[C@@H]1C [Example 33, 6-[4-(4-{2-[(3S)-4-acetyl-3-methylpiperazin-1-yl]ethoxy}phenyl)piperidin-1-yl]-3-(trifluoromethyl)[1,2,4]triazolo[4,3-b]pyridazine]"
3,7.17,"CC(=O)N1CCN(CCOc2ccc(C3CCN(c4ccc5nnc(C(F)(F)F)n5n4)CC3)cc2)C[C@H]1C [Example 34, 6-[4-(4-{2-[(3R)-4-acetyl-3-methylpiperazin-1-yl]ethoxy}phenyl)piperidin-1-yl]-3-(trifluoromethyl)[1,2,4]triazolo[4,3-b]pyridazine]"
4,6.85,"CC(=O)N1CCN(CCOc2ccc(C3(O)CCN(c4ccc5nnc(C(F)(F)F)n5n4)CC3)c(F)c2)CC1 [Example 35, 4-{4-[2-(4-acetylpiperazin-1-yl)ethoxy]-2-fluorophenyl}-1-[3-(trifluoromethyl)[1,2,4]-triazolo[4,3-b]pyridazin-6-yl]piperidin-4-ol]"
5,7.14,"CN1CCN(CCOc2ccc(C3(O)CCN(c4ccc5nnc(C(F)(F)F)n5n4)CC3)c(F)c2)CC1=O [Example 36, 4-[2-(3-fluoro-4-[4-hydroxy-1-[3-(trifluoromethyl)[1,2,4]triazolo[4,3-b]pyridazin-6-yl]piperidin-4-yl]phenoxy)ethyl]-1-methylpiperazin-2-one]"
6,6.41,"CCN1CCN(CCOc2ccc(C3(O)CCN(c4ccc5nnc(C(F)(F)F)n5n4)CC3)cc2)CC1=O [Example 37, 1-ethyl-4-[2-(4-{4-hydroxy-1-[3-(trifluoromethyl)[1,2,4]triazolo[4,3-b]pyridazin-6-yl]piperidin-4-yl}phenoxy)ethyl]piperazin-2-one]"
7,6.31,"O=C1CN(CCOc2ccc(C3(O)CCN(c4ccc5nnc(C(F)(F)F)n5n4)CC3)cc2)CCN1C1CC1 [Example 38, 1-cyclopropyl-4-[2-(4-{4-hydroxy-1-[3-(trifluoromethyl)[1,2,4]triazolo[4,3-b]pyridazin-6-yl]piperidin-4-yl}phenoxy)ethyl]piperazin-2-one]"
8,7.15,"CC(=O)N1CCN(CCOc2ccc(C3(O)CCN(c4ccc5nnc(C(F)(F)F)n5n4)CC3)cc2)C[C@H]1C [Example 39, 4-(4-{2-[(3R)-4-acetyl-3-methylpiperazin-1-yl]ethoxy}phenyl)-1-[3-(trifluoromethyl) [1,2,4]triazolo[4,3-b]pyridazin-6-yl]piperidin-4-ol]"
9,7.20,"CC(=O)N1CCN(CCOc2ccc(C3(O)CCN(c4ccc5nnc(C(F)(F)F)n5n4)CC3)cc2)C[C@@H]1C [Example 40, 4-(4-{2-[(3S)-4-acetyl-3-methylpiperazin-1-yl]ethoxy}phenyl)-1-[3-(trifluoromethyl) [1,2,4]triazolo[4,3-b]pyridazin-6-yl]piperidin-4-ol]"
10,7.44,"CC(=O)N1CCCN(CCOc2ccc(C3(O)CCN(c4ccc5nnc(C(F)(F)F)n5n4)CC3)c(F)c2)CC1 [Example 41, 4-{4-[2-(4-acetyl-1,4-diazepan-1-yl)ethoxy]-2-fluorophenyl}-1-[3-(trifluoromethyl)[1,2,4]triazolo[4,3-b]pyridazin-6-yl]piperidin-4-ol]"
11,6.77,"CN1CCN(CCCOc2ccc(C3(O)CCN(c4ccc5nnc(C(F)(F)F)n5n4)CC3)c(F)c2)CC1=O [Example 42, 4-[3-(3-fluoro-4-{4-hydroxy-1-[3-(trifluoromethyl)[1,2,4]triazolo[4,3-b]pyridazin-6-yl]piperidin-4-yl}phenoxy)propyl]-1-methylpiperazin-2-one]"
